# Experimental data as given in patent EP1412028B1, “TETRAHYDROINDOLONE DERIVATIVES LINKED TO ARYLPIPERAZINES” (Spectrum Pharmaceuticals, Inc., priority 2001, dated 2003).
# Like-named read-outs stand apart in the source and are kept apart here.
# Experiments:
# male C-57 mice = experiment: PCP disruption of pre-pulse inhibition (PPI) of the acoustic startle response; type: in vivo; details: for ED50: Mus musculus; for PCP Disruption of Pre-pulse Inhibition, reversal: mice, PCP 5mg/kg IP, route not given, NEO compounds as oxalate
# Method: The non-competitive NMDA receptor antagonist phencyclidine (PCP) reduces pre-pulse inhibition (PPI) of the acoustic startle response in rodents. […] For testing of PPI, male C-57 mice were assigned to five dose groups of eight animals per group, and vehicle or test compound were administered orally (PO) or subcutaneously (SC) 20 minutes prior to intraperitoneal (IP) administration of vehicle or PCP (5mg/kg). Ten minutes following PCP administration, the mice were placed into Hamilton-Kinder startle chambers and evaluation of pre-pulse inhibition procedure was performed. Following a five-minute acclimatization period with background white noise (65db), mice were exposed to five different trial types. Trials were presented […] in a quasi-random order, with randomized 5 to 25 second inter-trial intervals. Trials were: stimulus only trial (120db white noise, 50ms stimulus); two different prepulse+pulse trials in which a 20ms 5db; or 10db stimuli above a 65db background preceded the 120db pulse by 120ms; a 10dbprepulse without a 120db pulse; and a no stimulus trial, in which only the background noise was presented. Table 2 PCP Pre-pulse Inhibition
# Caco-2 cells [1] = system: Caco-2 cells
# Method: (§1) Caco-2 cells were used to evaluate the membrane permeability of eight embodiments of the present invention. Monolayers were grown to confluence and the integrity checked by transepithelial electrical resistance (TEER) and permeability of Lucifer Yellow. The expression of P-glycoprotein was confirmed by measuring the permeability of digoxin alone and in the presence of verapamil. Permeability measurements were taken for each compound in the apical to basolateral (AP-BL) direction, and the basolateral to apical (BL-AP) direction.
# Caco-2 cells [2] = experiment: Membrane permeability (Papp) across Caco-2 cell monolayers; details: for RATIO Papp^B-A/ Papp^A-B / Papp AP- to- BL / Papp BL- to- AP: Caco-2 monolayer; for Papp AP- to- BL: apical to basolateral direction; for Papp BL- to- AP: basolateral to apical direction
# Method: as §1
# mice = experiment: Conditioned avoidance responding (CAR, active avoidance); type: in vivo; details: for ED50: Mus musculus
# Method: Training: Consists of 20 trials with variable inter-trial intervals (Trained to 80% Avoidance Criteria). After a one-minute acclimation period, the house light and an acoustic 90dB tone (conditioned stimuli) are presented. A response (crossing to dark compartment) within 5 seconds ends the trial and trial is recorded as avoidance response (CAR). […] To avoid shock, animals learn to move from the lighted side of the chamber to the dark side when the cue is presented (avoidance) or moved when the shock is administered (escape).Testing: Vehicle or test compounds are administered S.C. 20 minutes before the test session. (Checking for disruption of cognition and attention) Table 3. Conditioned Avoidance Responding
# [3] = sc, read-out: PCP Disruption of Pre-pulse Inhibition - SC, 5pp ED50
# [4] = sc, read-out: PCP Disruption of Pre-pulse Inhibition - SC, 10pp ED50
# [5] = read-out: PCP Disruption of Pre-pulse Inhibition, 10pp ED50
# [6] = mice, SC 20 minutes before the test session, read-out: Conditioned Avoidance Responding, Latency ED50
# [7] = mice, SC 20 minutes before the test session, read-out: Conditioned Avoidance Responding, avoidance ED50
# [8] = mice, SC 20 minutes before the test session
# [9] = sc, read-out: Conditioned Avoidance Responding, Latency ED50
# [10] = sc, read-out: Conditioned Avoidance Responding, avoidance ED50
SMILES,ED50 (male C-57 mice; [3]) [mg/kg],ED50 (male C-57 mice; [4]) [mg/kg],ED50 (male C-57 mice; [5]) [mg/kg],EFFLUX LIMITED (Caco-2 cells [1]),PERMEABILITY (Caco-2 cells [1]),RATIO Papp^B-A/ Papp^A-B (Caco-2 cells [2]),Papp AP- to- BL (Caco-2 cells [2]) [cm/s x 10^6],Papp BL- to- AP (Caco-2 cells [2]) [cm/s x 10^6],ED50 (mice; [6]) [mg/kg],ED50 (mice; [7]) [mg/kg],"Conditioned Avoidance Responding, effect on avoidance (mice; [8])","Conditioned Avoidance Responding, effect on latency (mice; [8])",ED50 (mice; [9]) [mg/kg],ED50 (mice; [10]) [mg/kg],"PCP Disruption of Pre-pulse Inhibition, reversal (male C-57 mice)","Conditioned Avoidance Responding, effect on escape or avoidance (mice; [8])","Conditioned Avoidance Responding, overall effect (mice; [8])","ED50 (male C-57 mice; read-out: PCP Disruption of Pre-pulse Inhibition, 5pp ED50) [mg/kg]",Papp AP- to- BL (Caco-2 cells [1]; human) [cm/s x 10^6],"EFFLUX LIMITED (Caco-2 cells [2]; Caco-2, Yes/No judgement)"
"O=C1CCCc2c1ccn2CCCCN1CCN(c2cccc(C(F)(F)F)c2)CC1 [NEO-392, 1-{4-[4-(3-Trifluoromethylphenyl)piperazin-1-yl]-butyl}-1,5,6,7-tetrahydroindol-4-one]",0.23,0.23,1.12,No,High,0.58,27.1±1.1,15.7±1.3,3.25,4.93,Significant reduction in avoidance,Significant increase in latency,–,–,–,–,–,–,–,–
"Cc1nc2n(c(=O)c1CCN1CCC(c3noc4cc(F)ccc34)CC1)CCCC2 [Risperidone, risperidone, reference compound]",0.036,0.036,–,–,–,–,–,–,–,–,Significant reduction in avoidance,Significant increase in latency,0.26,0.19,–,–,–,–,–,–
"O=C1CCCc2c1ccn2CCN1CCN(c2cccc(C(F)(F)F)c2)CC1 [NEO-359, 1-{2-[4-(3-Trifluoromethylphenyl)piperazine-1-yl]ethyl}-1,5,6,7-tetrahydroindol-4-one]",3.58,0.79,–,No,High,0.32,24.0±3.9,7.6±0.5,100,–,–,Significant decrease in latency,–,–,No reversal,No effect on escape or avoidance,–,–,–,–
"COc1ccccc1N1CCN(CCn2ccc3c2CCCC3=O)CC1 [NEO-377, 1-{2-[4-(2-Methoxyphenyl)-piperazin-1-yl]-ethyl}-1,5,6,7-tetrahydro-indol-4-one]",2.31,1.12,2.3,No,High,0.60,26.0±1.8,15.5±2.9,3,7.57,Significant reduction in avoidance,Significant increase in latency,–,–,–,–,–,–,–,–
"O=C1CCCc2c1ccn2CCCN1CCN(c2ncccn2)CC1 [NEO-381, 1-{3-[4-(2-Pyrimidyl)piperazine-1-yl]propyl}-1,5,6,7-tetrahydroindol-4-one]",0.79,3.58,–,No,High,0.77,32.9±9.6,25.3±0.7,–,–,–,–,–,–,No reversal,–,No effect,–,–,–
"COc1ccccc1N1CCN(CCCn2ccc3c2CCCC3=O)CC1 [NEO-370, 1-{3-[4-(2-Methoxyphenyl)piperazine-1-yl]propyl}-1,5,6,7-tetrahydroindol-4-one]",0.79,0.79,0.96,No,High,0.67,32.1±8.1,20.0±3.4,3.25,6.2,Significant reduction in avoidance,Significant increase in latency,–,–,–,–,–,0.96,–,–
"CC(C)NCC(O)COc1cccc2ccccc12 (stereo not drawn) [Propranolol, reference compound]",–,–,–,No,High,–,–,–,–,–,–,–,–,–,–,–,–,–,17.3±2.3,–
"O=C1CCCc2c1ccn2CCN1CCN(c2cccc(Cl)c2)CC1 [NEO-376, 1-{2-[4-(3-Chloro-phenyl)-piperazin-1-yl]-ethyl}-1,5,6,7-tetrahydro-indol-4-one]",0.79,0.79,0.79,No,High,0.43,20.4±1.8,9.4±0.3,17.5,–,–,significant increase in latency,–,–,–,No effect on escape or avoidance,–,–,–,–
"CN1CCN(C2=Nc3cc(Cl)ccc3Nc3ccccc32)CC1 [Clozapine, clozapine, reference compound]",2.87,3,–,–,–,0.65,15.3±0.7,7.4±1.1,–,–,–,–,3.03,6.3,–,–,–,–,–,No
"O=C1CCCc2c1ccn2CCCN1CCN(c2cccc(C(F)(F)F)c2)CC1 [NEO-356, 1-{3-[4-(3-Trifluoromethylphenyl)piperazin-1-yl]propyl}-1,5,6,7-tetrahydroindol-4-one]",2.31,–,–,No,High,0.41,21.5±2.9,8.8±0.3,–,–,–,–,–,–,No reversal,–,No effect,–,–,–
"O=C1CCCc2c1ccn2CCCN1CCN(c2cccc(Cl)c2)CC1 [NEO-363, 1-{3-[4-(3-Chlorophenyl)piperazine-1-yl]propyl}-1,5,6,7-tetrahydroindol-4-one]",2.3,2.3,3.1,No,High,0.75,18.0±0.7,13.1±1.1,–,–,–,–,–,–,–,–,No effect,–,–,–
